Reference: patent publication US20040028753A1, “Inhalation of nitric oxide” (priority 2000, published 2004)

Key:
COX-1 = COX-1 expression in lung tissue by Western blotting; type: in vivo, pig; conditions: 3 and 5 hour INO trial, no-block group
Experimental: (§1) The lung tissue blocks were rinsed by PBS at 4° C. The total protein of lung tissue was extracted by homogenization (Ultra-Turrax, Jenke and Kunkel, IKA Labortechnik, Staufen, Germany) in 5 volumes of ice-cold 0.05M Tris buffer (pH 7.4) containing 0.5 mM phenylmethyl-sulfonylfluoride to inhibit proteolysis. The supernatant was collected and stored at −80° C. until the analysis. The concentration of whole protein in the supernatant was determined by the method of Lowry. Then the protein was fractionated by sodium dodecyl sulfate-polyacrylamide gel electrophoresis, and electrophoretically transferred to a nitrocellulose membrane. The blot was blocked with 5% BSA in TBS overnight at 4° C. and then incubated with anti-COX-1 (1:2500, Cayman Chemical, MI, USA, Ca 160108), COX-2 (1:1500, Cayman Chemical, MI, USA, Ca 160108) in TBS containing 1% BSA over night at 4° C. […] The blot was washed 5 times in TBS, and the antigen-antibody complex was detected on photographic film, using enhanced chemiluminescence reagent (Amersham, Arlington Heights, Ill., USA). All the experiments were carried out three times, and the bands from each experiment were analyzed using the program of National Institutes of Health (NIH) Image 1.6 C for statistical analysis.

TXB2 = assay: Plasma TXB2 concentration by enzyme immunoassay; type: in vivo, pig
Experimental: The injections were evenly distributed over the respiratory cycle. The expired minute volume was recorded at each measurement.
Blood was collected in pre-chilled tubes containing EDTA (10 mM, final concentration), centrifuged (10 min 40C). Measurements of TXB2 concentration were performed using a commercially available enzyme immunoassay (Thromboxane B2 EIA kit Cayman Chemical, MI, USA, Ca 519031). Serum was collected from each test tube and stored at −70° C. until TXB2 measurements were performed. To ensure that all samples were free of organic solvents, the serum was purified before its addition to the assay well. Purification of TXB2 was performed as the Cayman Chemical Introduction, by first adding 10,000 cpm of tritium-labeled TXB2 (3H-TXB2) to each sample, and then 2 ml ethanol, followed by votex 4° C. for 5 minutes, and centrifugation at 1500 g for 10 minutes to remove precipitated proteins. The supernatant was collected and mixed with ultra-pure water. The sample was passed through a C-18 reverse phase cartridge. Ten percent of the eluate was removed for scintillation counting.
Enzyme immunoassays were performed in duplicate by mixing 50 μl purified sample with 50 μl tracer and 50 μl antiserum on micro-plates. After 18 hours incubation, 200 μl Ellmans-Reagents was added to start the enzymatic reaction, and the absorption of individual vials was measured 30 minutes later at 405 nm using a photometry micro-plate reader (Thermo Max, Molecular Devices). Concentrations of TXB2 in the samples were estimated from standard curves obtained by nonlinear regression to absorption of eight known TXB2 concentrations ranging from 7.5 to 1000 pg/ml. The intra-assay and inter-assay coefficients of variation were <10%. For further details, see the TXB2 Enzyme immunoassay Kit 519031 Cayman Chemical manual.

[1] = tested on: pigs with endotoxin-induced acute lung damage
Experimental: The Animal Research Ethics Committee of Uppsala University approved the study. Twentysix pigs of Swedish country breed, weighing 24-29 Kg, were used in the study. Before the transport from the farm, the pigs were sedated with a neuroleptic, azaperonum ([…], Janssen, Belgium), 40 mg intramuscularly (im). Anaesthesia was induced with atropine im (0.04 mg/Kg), tiletamin/zolazepam (ZOLETIL, Virbac Laboratories) (6 mg/Kg) and xylzry (ROMPUN, Bayer AG, Germany) (2.2 mg/Kg). After induction, a cannula was inserted in an ear vein and an opioid ([…], Antigen Pharmaceuticals Ltd, Roscrea, Ireland) (5 ug/Kg) was injected. Muscle relaxation was provided by pancuronium (PAVULON, Organon Technika AB, Göteborg, Sweden) ([…]). Anaesthesia was maintained with a continuous infusion of a hypnotic (chlomethiazole, HEMINEVRIN, Astra, Södertälje, Sweden) (400 mg/hour), pancuronium (2 mg/hour) and fentanyl (150 ug/hour) Repeated doses of fentanyl 0.2-0.5 mg i.v. were given as necessary. Depth of anaesthesia was considered to be adequate when skin incisions did riot cause any changes in heart rate or blood pressure. Pre-warmed (38° C.) isotonic saline 500 ml/hour was given for hydration. The animals were placed in the supine position (dorsal recumbency) for the remainder of the study.
A tracheotomy was performed after induction of anaesthesia and a cuffed tracheal tube (inner diameter 6 mm) was inserted. A volume-controlled ventilator (Siemens 900c) provided mechanical ventilation. Transducers built into the ventilator recorded airway pressure and minute ventilation. Respiratory frequency was maintained at 20 breaths per minute with tidal volume adjusted to maintain an end-tidal CO2 (PetCO2) between 36 and 41 mm Hg (4.8-5.4 kPa). The inspiratory time was 25%; an end-inspiratory pause 5% of the respiratory cycle was applied, as well as an end-expiratory pressure (PEEP) of 5-cm H2O. Inspired fraction of oxygen (FIO2) was 0.5.
A triple lumen balloon-tipped catheter (Swan Ganz no. 7F) was introduced via the right external jugular vein to the pulmonary artery for blood sampling and pressure recordings. […] The right carotid artery was cannulated for blood sampling and recording of arterial blood pressure.
The arterial, central venous and pulmonary artery catheters were connected to appropriate pressure transducers (Sorenson Transpac.Transducers, Abbott Critical Care Systems, Ill, USA) and pressures were recorded on a Marquette 7010 monitor (Marquette Electronics Inc., WI USA). Mean arterial pressure (MAP), mean pulmonary artery pressure (MPAP), heart rate (HR), central venous pressure (CVP), pulmonary capillary wedge pressure (PCWP) and cardiac output (Qt) were recorded. Airway pressures were registered from the ventilator. Vascular pressures were averaged over the whole respiratory cycle and the mid-thorax was used as the zero reference level.
Qt was measured.by means of thermodilution: 10 ml of ice cold isotonic saline were injected as a bolus and the Qt was computed (cardiac output computer Marquette 7010, Marquette Electronics Inc., WI, USA). At least three injections were given for each measurement and the mean was calculated. The injections were evenly distributed over the respiratory cycle. The expired minute volume was recorded at each measurement. Mixed venous and arterial blood samples were collected for blood gas analysis (ABL 3, Radiometer, Copenhagen, Denmark), oxygen saturation and hemoglobin concentration (OSM 3, Radiometer, Copenhagen, Denmark). Five-ml arterial blood were collected at the same time, the plasma was separated for biochemical analysis (see below).
Acute lung damage was induced by intravenous infusion of endotoxin 25 ug/kg/hour for 3 hours, and then maintained at 10 ug/kg/hour during the remaining experimental period.
Thirty minutes after surgery, baseline measurements of hemodynamics were made, blood samples were taken and blood was collected for subsequent biochemical analysis.

COX-2 = COX-2 expression in lung tissue by Western blotting; type: in vivo, pig; conditions: no-block group
Experimental: as §1

[2] = inhalation of 30 ppm NO after 3 hours of endotoxin infusion (first trial)
[3] = second trial, after 4 hours of endotoxin infusion, 30 ppm NO
[4] = second trial, five minutes after discontinuation of NO inhalation

Row | Structure (SMILES) | effect of inhalation or discontinuation on COX-1 expression (COX-1) | plasma TXB2 level during NO inhalation (TXB2; first INO trial) | plasma TXB2 after INO withdrawal (TXB2; first INO trial, five minutes after withdrawal, p<0.05 in no-block group) | plasma TXB2 after second INO withdrawal (TXB2; second INO trial) | time to MPAP increase after discontinuation of NO inhalation ([1]; first trial) [min] | PaO2 rebound on discontinuation of NO inhalation ([1]; first trial (3 hours of endotoxin infusion)) | decrease in MPAP [1, 2] [%] | increase in PaO2 [1, 2] [%] | increase in respiratory resistance during the endotoxin infusion ([1]; pig, in vivo) | MPAP response to NO inhalation in second trial compared with first trial one hour earlier [1, 3] | PaO2 response to NO inhalation in second trial compared with first trial one hour earlier [1, 3] | MPAP increase above the pre-NO level after discontinuation [1, 4] [%] | PaO2 after discontinuation relative to pre-NO level [1, 4] | effect of thirty minutes of INO on COX-2 expression (COX-2; 3 and 5 hour inhalation test) | COX-2 expression after the INO periods (COX-2) | effect of pretreatment on MPAP ([1]; Diclofenac in saline 300 mg/Kg iv bolus 30 minutes before NO inhalation, endotoxin infusion)
1 | [N]=O [NO, nitric oxide] | did not affect | did not change | increased | further increase | ≤ 5 | did not show a clear rebound phenomenon | 28 | 54 | did not prevent or attenuate the rise | weaker | weaker, and no longer significant | 26 | fallen to below the pre-NO level | had no effect | remained increased | –
2 | O=C(O)Cc1ccccc1Nc1c(Cl)cccc1Cl [Diclofenac] | – | – | – | – | – | – | – | – | – | – | – | – | – | – | – | lowered MPAP
